Experimental data as given in US20030134848A1, “Substituted 1-aza-2-imino-heterocycles and their use as nicotinic acetylcholin receptors activators” (priority 2000, published 2003).
Read-outs that look alike come from different tables or passages of the source.

Tests used:
[1] = target: T1, α4β2 subtype of nicotinic acetylcholine receptors (Rattus norvegicus, UniProt P09483+P12390); test: Binding assay at α4β2 subtype of nicotinic acetylcholine receptors ([3H]-cytisine, rat brain membrane); conditions: for remaining activity at 1 µM / remaining activity at 10 µM: read-out: control % of [3H]-cytisine binding
T1 construct: rat brain membrane obtained from whole homogenized brain; from tissue; host or cells: whole brain of Fischer-344 male rats, membrane fraction
T1 sequence (P09483 31-630): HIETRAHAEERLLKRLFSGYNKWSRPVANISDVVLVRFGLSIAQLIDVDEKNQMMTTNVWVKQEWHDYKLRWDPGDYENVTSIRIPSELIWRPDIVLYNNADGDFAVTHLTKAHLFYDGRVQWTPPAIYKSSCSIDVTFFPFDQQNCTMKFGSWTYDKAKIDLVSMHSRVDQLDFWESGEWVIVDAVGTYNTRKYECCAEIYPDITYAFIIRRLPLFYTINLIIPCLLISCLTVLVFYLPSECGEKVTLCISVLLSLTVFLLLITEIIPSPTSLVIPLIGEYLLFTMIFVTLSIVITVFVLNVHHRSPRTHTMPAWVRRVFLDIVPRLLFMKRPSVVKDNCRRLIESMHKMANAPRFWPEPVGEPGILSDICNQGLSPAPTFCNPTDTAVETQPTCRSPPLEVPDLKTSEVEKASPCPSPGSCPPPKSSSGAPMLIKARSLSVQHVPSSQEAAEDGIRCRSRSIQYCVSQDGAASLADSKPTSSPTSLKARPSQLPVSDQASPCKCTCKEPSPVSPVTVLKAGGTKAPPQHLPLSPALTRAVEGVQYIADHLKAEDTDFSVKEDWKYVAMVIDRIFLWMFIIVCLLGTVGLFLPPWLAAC
T1 sequence (P12390 25-500): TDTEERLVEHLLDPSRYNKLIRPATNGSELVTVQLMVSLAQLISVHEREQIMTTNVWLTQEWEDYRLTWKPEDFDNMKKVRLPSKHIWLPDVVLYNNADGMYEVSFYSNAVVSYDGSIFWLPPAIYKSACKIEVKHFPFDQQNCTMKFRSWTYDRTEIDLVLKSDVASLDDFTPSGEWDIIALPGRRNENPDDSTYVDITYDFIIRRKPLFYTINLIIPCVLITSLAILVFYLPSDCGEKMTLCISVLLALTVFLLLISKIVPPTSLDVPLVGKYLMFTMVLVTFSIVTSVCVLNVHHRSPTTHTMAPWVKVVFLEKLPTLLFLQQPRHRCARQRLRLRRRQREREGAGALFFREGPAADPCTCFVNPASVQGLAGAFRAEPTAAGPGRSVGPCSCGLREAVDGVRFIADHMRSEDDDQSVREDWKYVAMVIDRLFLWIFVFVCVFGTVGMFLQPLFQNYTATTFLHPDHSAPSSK
Text: (§1) The methods for evaluating the binding capabilities of the compounds at nicotinic acetylcholine receptors are different by subtypes of receptors. The binding capabilities of the compounds at α4β2 nicotinic acetylcholine receptors are examined using rat brain membrane obtained from whole homogenized brain, and determining the inhibiting rate of the compounds against [^3H]-cytisine binding to said brain membrane. Furthermore, the binding capabilities of the compounds at α1β1γδ nicotinic acetylcholine receptors are examined using homogenized rat muscle, and determining the inhibiting rate of the compounds against [^3H]-α-bungarotoxin binding to said muscle homogenate.
The affinity of the compounds of the present invention to α4β2 subtype of nicotinic acetylcholine receptors was performed by the following method, which was modified method described by Pabreza L. A., Dhawan S. & Kellar K. J., Mol. Pharm., 39, 9-12 (1990), and by Anderson D. J. & Arneric S. P., Eur. J. Pharm., 253, 261-267 (1994).
(1) Preparation of Rat Brain Membrane Containing α4β2 Subtype of Nicotinic Acetylcholine Receptors
Fischer-344 strain male rats (body weight: 200-240 g; 9 weeks old) obtained from Charles River Japan were used. Rats were housed in the breeding cage controlled of the room temperature at 23±1° C., and the humidity of 55±5% for 1 to 4 weeks. Rats (3 to 4 rats per a cage) were housed with lights on for 12 hours daily (from 7:00 to 19:00), and allowed free access to food and water.
Preparation of rat brain membrane containing α4β2 subtype of nicotinic acetylcholine receptors was performed as follow. That is, rat brains were isolated just after sacrificed by decapitation, washed with ice-cooled saline solution and then frozen at −80° C. with liquid nitrogen and stored till using. After thawing the frozen brain, the brain was homogenized in 10 volumes of ice-cooled buffer solution (50 mM of Tris-HCl, 120 mM of NaCl, 5 mM of KCl, 1 mM of MgCl2, 2 mM of CaCl2; pH 7.4; 4° C.) using homogenizer (HG30, Hitachi Kohki Ltd.) for 30 seconds, and the homogenate were centrifuged under 1,000×G for 10 minutes at 4° C. The resulting supernatant was separated and the pellet was homogenized again with half volume of aforementioned prior buffer solution and centrifuged under the same conditions. Combined supernatant was further centrifuged under 40,000×G for 20 minutes at 4° C. The pellet was suspended in buffer solution and used for binding assays at receptors.
(2) Experiments of α4β2 Subtype of Nicotinic Acetylcholine Receptors Binding
Suspensions of membrane pellets containing 400-600 μg of protein were added to test tubes containing test compounds and [^3H]-cytisine (2 nM) in a final volume of 200 μl and incubated for 75 minutes in ice-cooled bath. The samples were isolated by vacuum filtration onto Whatman GF/B filters, which were prerinsed with 0.5% polyethylenimine just prior to sample filtration, using Brandel multi manifold cell harvester. The filters were rapidly washed with buffer solution (3×1 ml). The filters were counted in 3 ml of clearsol I (Nacalai Tesque Inc.).
The analyses of the experimental results were conducted by using the Accufit Competition Program (Beckman Ltd.).

[2] = target: α1β1γδ subtype of nicotinic acetylcholine receptors (Rattus norvegicus, UniProt P18916+P25108+P25110); test: biochemical; format: binding; conditions: for Ki: read-out: Affinities for receptors Ki α1β1γδ, rat muscle extract, [3H]-α-Bgt 1 nM; for remaining activity at 100 µM / remaining activity at 1000 µM: read-out: control % of [3H]-α-Bgt binding
Sequence of α1β1γδ subtype of nicotinic acetylcholine receptors (P25109 24-501): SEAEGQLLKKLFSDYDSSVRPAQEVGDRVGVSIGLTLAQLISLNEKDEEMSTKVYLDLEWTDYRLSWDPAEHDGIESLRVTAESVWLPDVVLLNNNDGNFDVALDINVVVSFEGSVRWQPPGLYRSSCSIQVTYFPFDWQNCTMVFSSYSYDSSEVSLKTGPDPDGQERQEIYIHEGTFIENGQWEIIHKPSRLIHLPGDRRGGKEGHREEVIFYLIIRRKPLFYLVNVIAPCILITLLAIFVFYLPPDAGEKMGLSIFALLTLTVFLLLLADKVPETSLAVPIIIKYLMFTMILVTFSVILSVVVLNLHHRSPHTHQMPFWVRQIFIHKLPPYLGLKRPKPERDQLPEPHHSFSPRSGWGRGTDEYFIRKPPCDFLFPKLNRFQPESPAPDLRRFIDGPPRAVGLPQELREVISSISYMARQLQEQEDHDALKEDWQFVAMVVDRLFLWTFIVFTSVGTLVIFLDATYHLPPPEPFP
Sequence of α1β1γδ subtype of nicotinic acetylcholine receptors (P25110 22-517): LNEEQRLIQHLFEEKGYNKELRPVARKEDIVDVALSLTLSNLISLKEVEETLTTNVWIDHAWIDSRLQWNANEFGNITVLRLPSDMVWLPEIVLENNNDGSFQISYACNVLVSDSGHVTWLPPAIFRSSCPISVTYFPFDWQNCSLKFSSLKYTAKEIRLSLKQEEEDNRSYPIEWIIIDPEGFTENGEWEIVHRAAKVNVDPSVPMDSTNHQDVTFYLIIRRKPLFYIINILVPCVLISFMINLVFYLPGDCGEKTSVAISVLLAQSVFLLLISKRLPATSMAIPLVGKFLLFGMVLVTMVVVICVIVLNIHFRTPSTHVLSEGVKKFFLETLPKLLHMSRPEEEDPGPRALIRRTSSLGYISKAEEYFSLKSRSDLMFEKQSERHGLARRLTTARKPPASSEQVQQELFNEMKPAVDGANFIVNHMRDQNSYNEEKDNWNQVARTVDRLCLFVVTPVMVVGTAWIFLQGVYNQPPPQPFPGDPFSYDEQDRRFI
Sequence of α1β1γδ subtype of nicotinic acetylcholine receptors (P25108 21-457): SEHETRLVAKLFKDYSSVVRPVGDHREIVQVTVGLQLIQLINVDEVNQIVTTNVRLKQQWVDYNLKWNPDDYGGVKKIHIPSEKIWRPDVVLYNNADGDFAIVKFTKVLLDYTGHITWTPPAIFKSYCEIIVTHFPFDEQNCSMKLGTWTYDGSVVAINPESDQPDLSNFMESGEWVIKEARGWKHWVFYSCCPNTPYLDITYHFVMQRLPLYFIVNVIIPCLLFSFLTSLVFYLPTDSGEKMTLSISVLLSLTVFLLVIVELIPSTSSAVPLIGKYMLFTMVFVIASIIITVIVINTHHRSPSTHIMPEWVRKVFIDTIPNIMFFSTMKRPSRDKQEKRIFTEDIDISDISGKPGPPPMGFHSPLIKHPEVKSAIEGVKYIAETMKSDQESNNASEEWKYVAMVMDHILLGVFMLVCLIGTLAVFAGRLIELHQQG
Sequence of α1β1γδ subtype of nicotinic acetylcholine receptors (P18916 23-519): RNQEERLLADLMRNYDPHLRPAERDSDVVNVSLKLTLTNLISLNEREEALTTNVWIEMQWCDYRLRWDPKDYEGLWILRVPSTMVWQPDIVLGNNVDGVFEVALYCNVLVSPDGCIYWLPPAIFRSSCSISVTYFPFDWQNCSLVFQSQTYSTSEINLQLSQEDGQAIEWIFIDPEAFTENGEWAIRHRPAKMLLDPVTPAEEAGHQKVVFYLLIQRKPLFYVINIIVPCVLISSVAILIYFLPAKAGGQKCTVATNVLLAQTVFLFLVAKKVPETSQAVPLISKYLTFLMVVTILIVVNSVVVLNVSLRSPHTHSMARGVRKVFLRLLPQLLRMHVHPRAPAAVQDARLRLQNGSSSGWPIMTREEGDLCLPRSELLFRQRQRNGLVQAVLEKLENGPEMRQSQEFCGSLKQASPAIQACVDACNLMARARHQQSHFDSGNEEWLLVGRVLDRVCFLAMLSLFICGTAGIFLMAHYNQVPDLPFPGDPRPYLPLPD
Text: as §1
The affinity of the compounds of the present invention to α1β1γδ subtype of nicotinic acetylcholine receptors was measured by the following method, which was modified method described by Garcha H. S., Thomas P., Spivak C. E., Wonnacott S. & Stolerman I. P., Psychropharmacology, 110, 347-354 (1993).
(1) Preparation of Rat Skeletal Muscles Containing α1β1γδ Subtype of Nicotinic Acetylcholine Receptors
The substantially same animals described in the Biological Experiment 1 were used.
The isolation of α1β1γδ subtype of nicotinic acetylcholine receptors was performed as follow. That is, rat posterior skeletal muscles were isolated just after sacrificed by decapitation, washed with ice-cooled saline solution and then frozen at −80° C. with liquid nitrogen and stored till using. After thawing the frozen muscles, tissue was homogenized (40% w/v) with buffer solution [2.5 mM of sodium phosphate buffer (pH:7.2), 90 mM of NaCl, 2 mM of KCl, 1 mM of EDTA, 2 mM of benzamidine, 0.1 mM of benzethonium chloride, 0.1 mM of PMSF, 0.01% of sodium azide] in Waring blender (Waring blender 34BL97; WARING PRODUCTS DIVISION DYNAMICS CORPORATION OF AMERICA) for 60 seconds. The homogenate were centrifuged under 20,000×G for 60 minutes at 4° C. The supernatant was separated and the resulting pellet was added to the same buffer (1.5 ml/g wet weight), and homogenized under the same conditions. Triton X100 (2% w/v) was added and the mixture was stirred for 3 hours at 4° C. The centrifugation at 100,000×G for 60 minutes at 4° C. yielded the rat muscle extract as supernatant. This was stored at 4° C. for up to 4 weeks, and used for binding assays at receptors.
(2) Experiments of α1β1γδ Subtype of Nicotinic Acetylcholine Receptors Binding
Receptors binding experiments were performed as follow. That is, the extract of rat muscle containing 600-900 μg of protein was added to test tubes containing test compounds and incubated for 15 minutes at 37° C. Then, to this mixture was added 1 nM of [^3H]-α-bungarotoxin (α-Bgt) and further incubated for 2 hours. The samples were isolated by vacuum filtration onto Whatman GF/B filters, which were prerinsed with 0.5% polyethylenimine just prior to sample filtration, using Brandel multi manifold cell harvester. The filters were rapidly rinsed with washing solution (10 mM of KH2PO4, 150 mM of NaCl, pH 7.2, room temperature) (5×1 ml). The filters were counted in 3 ml of clearsol I (Nacalai Tesque Inc.). The determination of nonspecific binding was incubated in the presence of 1 μM α-Bgt. The solutions containing α-Bgt (labeled/non-labeled) were prepared by using buffer solution containing 0.25% of BSA. In the receptor binding experiments, said buffer solution was added for adjusting the final concentration of BSA to be 0.05%.
The analyses of the experimental results were conducted by the same way as described in the Biological Experiment 1.

[3] = 1 μM of test compound, rat brain membrane
[4] = 10 μM of test compound, rat brain membrane

SMILES	Ki [1]	Ki [2]	remaining activity at 100 µM [2]	remaining activity at 1000 µM [2]	remaining activity at 1 µM [1, 3]	remaining activity at 10 µM [1, 4]	also measured
Cc1csc(=N)n1CCc1ccc(Cl)nc1 [Compound 4, 3-[2-(6-chloro-3-pyridyl)ethyl]-2-imino-4-methyl-2,3-dihydrothiazole]	0.0056 µM	10 µM	–	–	–	–	–
Nc1nccn1CCc1cncnc1Cl [Compound 35, 2-amino-1-[2-(4-chloro-5-pyrimidyl)ethyl]imidazole]	–	–	87%	49%	–	–	remaining activity at 1 µM [1]: 61%; remaining activity at 10 µM [1]: 17%
CC(Cn1ccsc1=N)c1ccc(Cl)nc1 (centres unmarked) [Compound 18, 3-[2-(6-chloro-3-pyridyl)propyl]-2-imino-2,3-dihydrothiazole]	0.084 µM	173 µM	–	–	–	–	–
CC(=O)Cn1ccsc1=N [Compound 2, 3-acetonyl-2-imino-2,3-dihydrothiazole]	–	–	–	–	107%	101%	–
N=c1ccccn1CCc1ccc(Cl)nc1 [Compound 16, 1-[2-(6-chloro-3-pyridyl)ethyl]-2-imino-1,2-dihydropyridine]	0.061 µM	227 µM	–	–	–	–	–
N=C1SCCN1CCc1ccc(Cl)nc1 [Compound 5, 3-[2-(6-chloro-3-pyridyl)ethyl]-2-iminothiazolidine]	0.0048 µM	34 µM	–	–	–	–	–
COc1ccc(Sc2ccccc2CCn2ccnc2N)cc1 [Compound 33, 2-amino-1-{2-[2-(4-methoxyphenyl)thiophenyl]ethyl}-imidazole]	–	–	119%	85%	111%	92%	–
Nc1nccn1CCc1ccncc1 [Compound 20, 2-amino-1-[2-(4-pyridyl)ethyl]imidazole]	–	–	109%	90%	97%	95%	–
Cc1sc(=N)n(CCc2ccc(Cl)nc2)c1C [Compound 10, 3-[2-(6-chloro-3-pyridyl)ethyl]-2-imino-4,5-dimethyl-2,3-dihydrothiazole]	0.051 µM	215 µM	–	–	–	–	–
Nc1nccn1CCc1ccccn1 [Compound 19, 2-amino-1-[2-(2-pyridyl)ethyl]imidazole]	–	–	106%	86%	103%	106%	–
N=C1SCCN1CC(=O)c1ccc(Cl)nc1 [Compound 8, 1-(6-chloro-3-pyridyl)-2-(2-imino-3-thiazolidinyl)-1-ethanone]	0.062 µM	1830 µM	–	–	–	–	–
Nc1nccn1CCc1ccc(Cl)cc1 [Compound 17, 2-amino-1-[2-(4-chlorophenyl)ethyl]imidazole]	–	–	83%	67%	97%	78%	–
N=C1SCCN1CC(O)c1ccc(Cl)nc1 (centres unmarked) [Compound 9, 1-(6-Chloro-3-pyridyl)-2-(2-imino-3-thiazolidinyl)-1-ethanol]	–	–	72%	35%	–	–	remaining activity at 1 µM [1]: 97%; remaining activity at 10 µM [1]: 43%
N=C1SCCN1CC(=O)c1ccccc1 [Compound 1, 2-imino-3-phenacylthiazolidine]	–	–	–	–	93%	68%	–
Cc1cncc(CCn2ccsc2=N)c1 [Compound 28, 2-imino-3-[2-(5-methyl-3-pyridyl)ethyl]-2,3-dihydrothiazole]	–	94 µM	–	–	–	–	Ki ([1]; rat brain membrane, [3H]-cytisine 2 nM, read-out: Affinities for receptors Ki α4β2): 0.027 µM
Cc1nc(N)n(CCc2ccc(Cl)nc2)c1C [Compound 21, 2-amino-1-[2-(6-chloro-3-pyridyl)ethyl]-4,5-dimethylimidazole]	0.097 µM	175 µM	–	–	–	–	–
N=c1sccn1CCc1ccc(Cl)nc1 [Compound 22, 3-[2-(6-chloro-3-pyridyl)ethyl]-2-imino-2,3-dihydrothiazole]	0.0074 µM	132 µM	–	–	–	–	–
Nc1nccn1CCc1ccc(O)cc1 [Compound 26, 2-amino-1-[2-(4-hydroxyphenyl)ethyl]imidazole]	–	–	81%	50%	93%	60%	–
N=c1ncccn1CCc1ccc(Cl)nc1 [Compound 3, 1-[2-(6-chloro-3-pyridyl)ethyl]-2-imino-1,2-dihydropyrimidine]	–	–	72%	39%	–	–	remaining activity at 1 µM [1]: 72%; remaining activity at 10 µM [1]: 17%
Cc1cn(CCc2ccc(Cl)nc2)c(=N)s1 [Compound 6, 3-[2-(6-chloro-3-pyridyl)ethyl]-2-imino-5-methyl-2,3-dihydro-thiazole]	–	–	82%	61%	–	–	remaining activity at 1 µM [1]: 77%; remaining activity at 10 µM [1]: 35%
N=c1sccn1CCc1cnc(Cl)s1 [Compound 24, 3-[2-(2-chloro-5-thiazolyl)ethyl]-2-imino-2,3-dihydrothiazole]	0.035 µM	58 µM	–	–	–	–	–
CN1CCCC1c1cccnc1 (single isomer, unassigned; (-)) [Nicotine, (−)-nicotine, reference compound]	–	182 µM	–	–	–	–	–
N=c1ccc(Cl)nn1CCc1ccc(Cl)nc1 [Compound 15, 6-chloro-2-[2-(6-chloro-3-pyridyl)ethyl]-3-imino-2,3-dihydropyridazine]	–	–	93%	61%	–	–	remaining activity at 1 µM [1]: 60%; remaining activity at 10 µM [1]: 12%
Nc1nccn1CCc1ccc(Cl)nc1 [Compound 7, 2-amino-1-[2-(6-chloro-pyridyl)ethyl]imidazole]	0.0049 µM	184 µM	–	–	–	–	–
Nc1nccn1CCc1ccccc1Sc1ccc(O)cc1 [Compound 32, 2-amino-1-{2-[2-(4-hydroxyphenyl)thiophenyl]ethyl}-imidazole]	–	–	107%	81%	102%	73%	–
